In patent US12336991B2, “Factor XIIA inhibitors” (UNIVERSITY OF LEEDS, priority 2018, dated 2025):

What was measured:
Assay type in all cases: biochemical
thrombin = target: T1, thrombin (Homo sapiens, UniProt P00734); assay: Determination of selectivity: thrombin inhibition, chromogenic substrate GPR assay; conditions: fold selectivity for FXIIa over thrombin
T1 construct: FXa (5 nM) and thrombin (5 nM)
Summary of the method: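 Thrombin (5 nM) preincubated with compound 10 min at 37 °C in 50 mM Tris, 137 mM NaCl, pH 7.4, 5% DMSO, then GPR substrate ([…]) added. Absorbance at 405 nm read kinetically for 3 h; IC50 from initial rates, converted to Ki via Ki=IC50/(1+[S]/Km).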

FXa = FXa (Homo sapiens, UniProt P00742); assay: Determination of selectivity: FXa inhibition, chromogenic substrate S2765 assay; conditions: fold selectivity for FXIIa over FXa
Summary of the method: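 Human FXa (5 nM) preincubated with compound (top 500 μM, 5% DMSO) 10 min at 37 °C in 50 mM Tris, 137 mM NaCl pH 7.4, then S2765 ([…]) added; A405 kinetics over 3 h at 37 °C. IC50 from initial rates, converted to Ki via Cheng-Prusoff.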

FXIIa = target: T2, FXIIa (Homo sapiens, UniProt P00748); assay: Determination of Factor XIIa inhibition, chromogenic substrate S-2302 assay; conditions: human FXIIa alpha
T2 sequence (P00748 373-615 limits assumed): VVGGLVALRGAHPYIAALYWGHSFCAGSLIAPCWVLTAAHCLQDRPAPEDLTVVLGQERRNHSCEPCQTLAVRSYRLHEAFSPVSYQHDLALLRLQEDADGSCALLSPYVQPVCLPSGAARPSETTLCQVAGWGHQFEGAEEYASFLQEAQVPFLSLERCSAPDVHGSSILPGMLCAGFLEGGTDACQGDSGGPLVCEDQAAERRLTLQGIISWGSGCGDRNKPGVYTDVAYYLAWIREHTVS
T2 sequence (P00748 20-372 partner limits assumed): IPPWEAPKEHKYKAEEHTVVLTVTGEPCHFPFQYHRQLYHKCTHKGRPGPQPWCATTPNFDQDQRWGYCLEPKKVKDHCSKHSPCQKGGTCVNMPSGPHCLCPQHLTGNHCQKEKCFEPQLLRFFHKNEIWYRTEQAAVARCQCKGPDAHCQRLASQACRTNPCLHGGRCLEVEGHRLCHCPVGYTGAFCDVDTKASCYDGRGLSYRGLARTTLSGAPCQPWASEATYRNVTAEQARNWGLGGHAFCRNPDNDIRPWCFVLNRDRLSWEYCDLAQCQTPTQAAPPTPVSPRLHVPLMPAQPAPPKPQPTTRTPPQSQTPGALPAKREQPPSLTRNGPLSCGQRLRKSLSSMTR
Summary of the method: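 FXIIa (10 nM) preincubated with compound 10 min at 37° C. in 50 mM Tris, 137 mM NaCl pH 7.4, 5% DMSO, top concentration 500 μM, then S-2302 added ([…]). Absorbance at 405 nm read kinetically for 3 h; IC50 from initial rates, converted to Ki by Cheng-Prusoff.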

Chain of FXa (P00742 235-488 limits assumed): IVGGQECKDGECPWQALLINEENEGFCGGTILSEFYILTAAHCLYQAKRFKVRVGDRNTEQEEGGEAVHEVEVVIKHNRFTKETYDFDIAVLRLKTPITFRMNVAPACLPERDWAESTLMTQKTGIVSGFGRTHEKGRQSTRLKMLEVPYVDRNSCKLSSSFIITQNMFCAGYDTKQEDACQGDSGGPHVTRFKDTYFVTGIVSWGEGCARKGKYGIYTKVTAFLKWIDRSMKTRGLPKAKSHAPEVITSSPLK
Chain of FXa (P00742 41-179 partner limits assumed): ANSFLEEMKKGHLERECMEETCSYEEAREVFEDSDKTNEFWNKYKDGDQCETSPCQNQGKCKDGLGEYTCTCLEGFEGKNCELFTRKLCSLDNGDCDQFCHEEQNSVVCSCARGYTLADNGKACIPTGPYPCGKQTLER

| Structure (SMILES) | Thrombin (human)/FXIIa alpha (human) (thrombin) | FXa (human)/FXIIa alpha (human) (FXa) | Ki (FXIIa) |
| --- | --- | --- | --- |
| NCc1ccc(CNC(=O)C2CCCN2C(=O)[C@H](N)CCc2cccc(CO)c2)cc1 (stereo partly drawn) [Example M00805] | + (fold selectivity values less than 10) | ∘∘ | > 2000 nM |
| CCOc1ccc(C[C@@H]2C[C@@H](C(=O)NCc3ccc4c(c3)nnn4C)N(C(=O)[C@H]3C[C@@H](c4ccccc4)CN3)C2)cc1 [Example M05382] | +++ (fold selectivity values greater than 100) | ∘∘∘ | 200 to 2000 nM |
| CC(=O)N(Cc1ccccc1)[C@H]1C[C@@H](C(=O)NCc2ccc3c(c2)nnn3C)N(C(=O)[C@H](N)CCc2ccccc2)C1 [Example M05161] | ++ (fold selectivity value of 10 to 100) | ∘∘ | > 2000 nM |
| COc1ccc(C[C@@H]2C[C@@H](C(=O)NCc3ccc4c(c3)nnn4C)N(C(=O)[C@H](N)CCC(=O)N3CCCC3C)C2)cc1 (stereo partly drawn) [Example M05391] | +++ (fold selectivity values greater than 100) | ∘∘∘ | < 200 nM |
| COc1ccc(C[C@@H]2C[C@@H](C(=O)NCc3cc4cnccc4[nH]3)N(C(=O)C3C[C@@H](C(=O)N4CCCC4)CCN3)C2)cc1 (stereo partly drawn) [Example M00966] | +++ (fold selectivity values greater than 100) | ∘∘∘ | < 200 nM |
| COc1ccc(C[C@@H]2C[C@@H](C(=O)NCc3ccc4c(c3)nnn4C)N(C(=O)[C@H](N)CCC(=O)N3CCC[C@@H]3C(C)C)C2)cc1 [Example M05412] | +++ (fold selectivity values greater than 100) | ∘∘∘ | < 200 nM |
| COc1ccc(C[C@@H]2C[C@@H](C(=O)NCc3ccc4c(c3)nnn4C)N(C(=O)[C@H]3CC(c4ccc(Cl)cc4)CN3)C2)cc1 (stereo partly drawn) [Example M05346] | ++ (fold selectivity value of 10 to 100) | ∘∘ | > 2000 nM |
| COc1ccc(C[C@@H]2C[C@@H](C(=O)NCc3ccc4c(c3)nnn4C)N(C(=O)[C@H](N)CCc3ccccn3)C2)cc1 [Example M05453] | +++ (fold selectivity values greater than 100) | ∘∘∘ | < 200 nM |
| Cn1nnc2cc(CNC(=O)[C@@H]3C[C@H](c4ccccc4)CN3C(=O)[C@H](N)CCc3ccccc3)ccc21 [Example M05163] | ++ (fold selectivity value of 10 to 100) | ∘∘ | > 2000 nM |
| Cn1nccc1-c1ccc(C[C@@H]2C[C@@H](C(=O)NCc3ccc4c(c3)nnn4C)N(C(=O)[C@H]3C[C@@H](c4ccccc4)CN3)C2)cc1 [Example M05367] | +++ (fold selectivity values greater than 100) | ∘∘∘ | 200 to 2000 nM |
| Cn1nnc2cc(CNC(=O)[C@@H]3CCCN3C(=O)[C@H](N)CCC(=O)N3CCCC3)ccc21 [Example M05308] | ++ (fold selectivity value of 10 to 100) | ∘∘ | > 2000 nM |
| COc1ccc(C[C@@H]2C[C@@H](C(=O)NCc3ccc4c(c3)nnn4C)N(C(=O)[C@H]3CC(c4cccnc4C(F)(F)F)CN3)C2)cc1 (stereo partly drawn) [Example M05421] | +++ (fold selectivity values greater than 100) | ∘∘∘ | 200 to 2000 nM |
| Cn1nnc2cc(CNC(=O)[C@@H]3C[C@@H](Cc4ccncc4)CN3C(=O)[C@@H](CCC(=O)N3CCCC3)NCCC(F)(F)F)ccc21 [Example M05262] | ++ (fold selectivity value of 10 to 100) | ∘∘ | > 2000 nM |
| Cn1nnc2cc(CNC(=O)[C@@H]3C[C@H](Cc4ccccn4)CN3C(=O)[C@H](N)CCC(=O)N3CCCC3)ccc21 [Example M05296] | +++ (fold selectivity values greater than 100) | ∘∘∘ | 200 to 2000 nM |
| Cn1nnc2cc(CNC(=O)[C@@H]3CC(Cc4ccccc4C#N)CN3C(=O)[C@H](N)CCC(=O)N3CCCC3)ccc21 (stereo partly drawn) [Example M05320] | +++ (fold selectivity values greater than 100) | ∘∘∘ | < 200 nM |
| COc1ccc(C[C@@H]2C[C@@H](C(=O)NCc3ccc4c(c3)nnn4C)N(C(=O)C3NCCc4cc(Cl)ccc43)C2)cc1 (stereo partly drawn) [Example M05431] | ++ (fold selectivity value of 10 to 100) | ∘∘ | > 2000 nM |
| Nc1nccc2cc(CNC(=O)[C@@H]3CCCN3C(=O)[C@H](N)CCc3ccccc3)ccc12 [Example M05237] | + (fold selectivity values less than 10) | ∘∘ | 200 to 2000 nM |
| CC(=O)N(Cc1cccnc1)[C@H]1C[C@@H](C(=O)NCc2ccc3c(c2)nnn3C)N(C(=O)[C@H](N)CCc2ccccc2)C1 [Example M05162] | ++ (fold selectivity value of 10 to 100) | ∘∘ | > 2000 nM |
| COc1ccc(C[C@@H]2C[C@@H](C(=O)NCc3nc4cnccc4[nH]3)N(C(=O)[C@H](N)CCC(=O)N3CCCC3)C2)cc1 [Example M00973] | +++ (fold selectivity values greater than 100) | ∘∘∘ | > 2000 nM |
| COc1ccc(C[C@@H]2C[C@@H](C(=O)NCc3ccc4c(c3)nnn4C)N(C(=O)[C@H]3CC(c4cnccc4OC)CN3)C2)cc1 (stereo partly drawn) [Example M05410] | + (fold selectivity values less than 10) | ∘∘ | > 2000 nM |
| Cn1nnc2cc(CNC(=O)[C@@H]3C[C@H](N)CN3C(=O)[C@H](N)CCc3ccccc3)ccc21 [Example M05143] | ++ (fold selectivity value of 10 to 100) | ∘∘ | > 2000 nM |
| Cn1nccc1-c1cccc(C[C@@H]2C[C@@H](C(=O)NCc3ccc4c(c3)nnn4C)N(C(=O)[C@H](N)CCC(=O)N3CCCC3)C2)c1 [Example M05350, (2S,4R)-1-((R)-2-Amino-5-oxo-5-pyrrolidin-1-yl-pentanoyl)-4-[3-(2-methyl-2H-pyrazol-3-yl)-benzyl]-pyrrolidine-2-carboxylic acid (1-methyl-1H-benzotriazol-5-ylmethyl)-amide] | +++ (fold selectivity values greater than 100) | ∘∘∘ | 200 to 2000 nM |
| Cc1ccc(C[C@@H]2C[C@@H](C(=O)NCc3ccc4c(c3)nnn4C)N(C(=O)[C@H]3C[C@@H](c4ccccc4)CN3)C2)cc1 [Example M05328] | ++ (fold selectivity value of 10 to 100) | ∘∘∘ | 200 to 2000 nM |
| Cn1cc(-c2ccc(C[C@@H]3C[C@@H](C(=O)NCc4ccc5c(c4)nnn5C)N(C(=O)[C@H](N)CCC(=O)N4CCCC4)C3)cc2)cn1 [Example M05341] | +++ (fold selectivity values greater than 100) | ∘∘∘ | 200 to 2000 nM |

More lines, now with the values ahead:

| Thrombin (human)/FXIIa alpha (human) (thrombin) | FXa (human)/FXIIa alpha (human) (FXa) | Ki (FXIIa) | Structure (SMILES) |
| --- | --- | --- | --- |
| ++ (fold selectivity value of 10 to 100) | ∘∘ | 200 to 2000 nM | Cn1nnc2cc(CNC(=O)[C@@H]3C[C@@H](Cc4ccc(C(F)(F)F)cc4)CN3C(=O)[C@H]3C[C@@H](c4ccccc4)CN3)ccc21 [Example M05334] |
| ++ (fold selectivity value of 10 to 100) | ∘∘∘ | 200 to 2000 nM | COc1cc(CNC(=O)[C@@H]2C[C@H](c3ccccc3)CN2C(=O)[C@H](N)CCc2ccccc2)ccc1CN [Example M05068] |
| + (fold selectivity values less than 10) | ∘∘ | 200 to 2000 nM | COc1cc(CNC(=O)[C@@H]2C[C@H](C)CN2C(=O)[C@H](N)CCc2ccccc2)ccc1CN [Example M05073] |
| ++ (fold selectivity value of 10 to 100) | ∘∘∘ | 200 to 2000 nM | O=C(NCc1cc2cnccc2[nH]1)[C@@H]1C[C@@H](Cc2ccc(C(F)(F)F)cc2)CN1C(=O)C1NCCc2cc(Cl)ccc21 (stereo partly drawn) [Example M00970] |
| + (fold selectivity values less than 10) | ∘∘∘ | < 200 nM | COc1ccc(C[C@@H]2C[C@@H](C(=O)NCc3cc4ccncc4[nH]3)N(C(=O)[C@H](N)CCc3ccccc3)C2)cc1 [Example M00954] |
